The supplement of paper PMC10307832

Key:
Assay in all cases: relative viability (nuclei count vs DMSO), 5 days (fraction); higher = more cells survive
[1] = compound: COC1=CC=C(C=C1)COC2=C(C=C(C=C2)CC3=CN=C(N=C3N)N)OC [GW-2580] + CC(=O)Nc1cccc(-n2c(=O)n(C3CC3)c(=O)c3c(Nc4ccc(I)cc4F)n(C)c(=O)c(C)c32)c1 [Trametinib] (partner 0.02 µM)
In short: (§1)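 Lung cancer cell lines, seeded in 1536-well plates, were treated the following day by pin tool with a single drug or with five library-drug doses (not always all listed) in √10 steps on top of a fixed anchor-drug dose. Cells were fixed and nuclei stained in one step after 5 days, and nuclei were counted. Relative viability is the nuclei count for treated wells divided by that for vehicle wells, reported as medians of duplicate plates.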

[2] = compound: COC1=CC=C(C=C1)COC2=C(C=C(C=C2)CC3=CN=C(N=C3N)N)OC [GW-2580] + Cc1nc(NC(=O)N2CCC[C@H]2C(N)=O)sc1-c1ccnc(C(C)(C)C(F)(F)F)c1 [Alpelisib] (partner 2 µM)
In short: as §1

[3] = compound: COC1=CC=C(C=C1)COC2=C(C=C(C=C2)CC3=CN=C(N=C3N)N)OC [GW-2580] + Cc1nc(Nc2ncc(C(=O)Nc3c(C)cccc3Cl)s2)cc(N2CCN(CCO)CC2)n1 [Dasatinib] (partner 0.075 µM)
In short: as §1

[4] = compound: Cc1cnc(Nc2ccc(OCCN3CCCC3)cc2)nc1Nc1cccc(S(=O)(=O)NC(C)(C)C)c1 [Fedratinib] + COc1cc2c(Oc3ccc(NC(=O)C4(C(=O)Nc5ccc(F)cc5)CC4)cc3F)ccnc2cc1OCCCN1CCOCC1 [Foretinib] (partner 0.25 µM)
In short: as §1

[5] = compound: Cc1cnc(Nc2ccc(OCCN3CCCC3)cc2)nc1Nc1cccc(S(=O)(=O)NC(C)(C)C)c1 [Fedratinib] + N=C(N)NC(=N)NCCc1ccccc1 [Phenformin] (partner 250 µM)
In short: as §1

| Cell Line | relative viability ([1]; first compound 0.08 µM) | relative viability ([1]; first compound 0.8 µM) | relative viability ([1]; first compound 2.53 µM) | relative viability ([1]; first compound 8 µM) | relative viability ([2]; first compound 0.08 µM) | relative viability ([2]; first compound 0.8 µM) | relative viability ([2]; first compound 2.53 µM) | relative viability ([2]; first compound 8 µM) | relative viability ([3]; first compound 0.08 µM) | relative viability ([3]; first compound 0.8 µM) | relative viability ([3]; first compound 2.53 µM) | relative viability ([3]; first compound 8 µM) | relative viability ([4]; first compound 0.1 µM) | relative viability ([4]; first compound 0.3162 µM) | relative viability ([4]; first compound 1 µM) | relative viability ([5]; first compound 0.1 µM) | relative viability ([5]; first compound 0.3162 µM) | relative viability ([5]; first compound 1 µM) |
| --- | --- | --- | --- | --- | --- | --- | --- | --- | --- | --- | --- | --- | --- | --- | --- | --- | --- | --- |
| NCI-H358 | 0.149 | 0.139 | 0.131 | 0.132 | 0.967 | 0.872 | 0.851 | 0.775 | 0.173 | 0.199 | 0.159 | 0.115 | 0.482 | 0.63 | 0.541 | 0.304 | 0.323 | 0.252 |
| NCI-H441 | 0.409 | 0.463 | 0.483 | 0.374 | 0.972 | 0.853 | 0.718 | 0.699 | 0.679 | 0.764 | 0.582 | 0.534 | 1.12 | 0.907 | 0.868 | 0.812 | 0.747 | 0.727 |
| NCI-H460 | 0.286 | 0.168 | 0.0886 | 0.187 | 0.49 | 0.464 | 0.44 | 0.511 | 0.574 | 0.722 | 0.452 | 0.512 | 0.793 | 1.05 | 0.997 | 0.382 | 0.516 | 0.459 |
| NCI-H520 | 0.736 | 0.606 | 0.608 | 0.539 | 1.02 | 0.988 | 0.837 | 0.966 | 0.203 | 0.238 | 0.204 | 0.252 | 0.797 | 0.736 | 0.726 | 0.431 | 0.564 | 0.399 |
| NCI-H596 | 0.806 | 0.979 | 0.689 | 0.795 | 0.486 | 0.525 | 0.516 | 0.471 | 0.625 | 0.543 | 0.7 | 0.688 | 0.881 | 0.78 | 0.762 | 0.691 | 0.895 | 0.859 |
| NCI-H647 | 0.474 | 0.469 | 0.406 | 0.479 | 1.44 | 1.45 | 1.04 | 1.13 | 0.189 | 0.16 | 0.11 | 0.224 | 1.16 | 1.23 | 1.16 | 0.475 | 0.473 | 0.309 |
| NCI-H650 | 0.945 | 1.06 | 0.953 | 0.907 | 1.26 | 1.06 | 0.914 | 1.14 | 0.468 | 0.538 | 0.396 | 0.424 | 0.943 | 1.01 | 1.01 | 0.431 | 0.441 | 0.426 |
| NCI-H661 | 0.678 | 0.566 | 0.516 | 0.504 | 0.542 | 0.835 | 0.426 | 0.479 | 0.983 | 0.943 | 0.689 | 0.685 | 0.959 | 1.1 | 1 | 0.269 | 0.287 | 0.304 |
| NCI-H727 | 0.417 | 0.382 | 0.364 | 0.383 | 0.664 | 0.594 | 0.615 | 0.453 | 0.414 | 0.409 | 0.44 | 0.299 | 0.835 | 0.808 | 0.779 | 0.76 | 0.477 | 0.352 |
| NCI-H838 | 0.576 | 0.514 | 0.411 | 0.632 | 1.01 | 1.06 | 1.15 | 1.07 | 0.295 | 0.344 | 0.241 | 0.316 | 1.05 | 1.06 | 0.989 | 0.468 | 0.67 | 0.414 |
| NCI-H1355 | 0.469 | 0.502 | 0.35 | 0.443 | 0.816 | 0.937 | 0.694 | 0.883 | 0.831 | 0.779 | 0.468 | 0.649 | 1.06 | 0.973 | 0.913 | 0.379 | 0.467 | 0.327 |
| NCI-H1395 | 0.975 | 0.969 | 0.988 | 1.08 | 1.04 | 0.941 | 1.03 | 1.01 | 0.41 | 0.409 | 0.401 | 0.427 | 0.926 | 0.956 | 0.959 | 0.392 | 0.378 | 0.47 |
| NCI-H1437 | 0.524 | 0.571 | 0.448 | 0.415 | 1.12 | 1.11 | 0.892 | 0.81 | 0.422 | 0.411 | 0.36 | 0.271 | 1.25 | 1.25 | 1.33 | 0.318 | 0.346 | 0.349 |
| NCI-H1651 | 0.795 | 0.849 | 0.786 | 0.807 | 1.26 | 1.17 | 0.954 | 0.934 | 0.307 | 0.447 | 0.43 | 0.582 | 0.813 | 0.73 | 0.761 | 0.287 | 0.318 | 0.247 |
| NCI-H1666 | 0.846 | 0.767 | 0.796 | 0.872 | 1.17 | 1.21 | 1 | 1.03 | 0.874 | 0.901 | 0.758 | 0.755 | 0.927 | 0.991 | 0.962 | 0.57 | 0.575 | 0.522 |
| NCI-H1734 | 0.765 | 0.69 | 0.695 | 0.647 | 0.697 | 0.761 | 0.654 | 0.671 | 0.459 | 0.497 | 0.456 | 0.447 | 0.665 | 0.921 | 0.786 | 0.382 | 0.385 | 0.353 |
| NCI-H1755 | 0.786 | 0.838 | 0.777 | 0.702 | 1.02 | 1.02 | 0.787 | 0.945 | 0.488 | 0.553 | 0.388 | 0.396 | 0.937 | 0.977 | 0.874 | 0.561 | 0.593 | 0.518 |
